According to PMC10661491 (Virus Research, 2023):
Like-named read-outs stand apart in the source and are kept apart here.

Assays:
ASFV [1] = type: cell-based, African Swine Fever Virus (ASFV)
PI3K/Akt pathway = type: cell-based, pigs
macropinocytosis of PAMs = type: cell-based, pigs
ASFV [2] = type: cell-based, African Swine Fever Virus (ASFV); remark: listed apart in the source
ASFV [3] = assay: microbe, parasite or virus in culture; type: cell-based; conditions: African swine fever virus, BMDM, read-out: IC50 against ASFV
LSDV = type: cell-based, Lumpy Skin Disease Virus (LSDV)
ASFV [4] = assay: microbe, parasite or virus in culture; type: cell-based; conditions: African swine fever virus, read-out: IC50 against ASFV
ASFV [5] = type: cell-based, African Swine Fever Virus (ASFV); remark: listed apart in the source
ASFV [6] = type: cell-based, African Swine Fever Virus (ASFV); remark: listed apart in the source
ASFV [7] = type: cell-based, African Swine Fever Virus (ASFV); remark: listed apart in the source
ASFV [8] = assay: microbe, parasite or virus in culture; type: cell-based; conditions: African swine fever virus, MA104, read-out: IC50 against ASFV
ASFV [9] = type: cell-based, African Swine Fever Virus (ASFV); remark: listed apart in the source
[10] = tested on: clathrin-mediated endocytosis of PAMs; type: cell-based, pigs
PEDV = type: cell-based, Porcine Epidemic Diarrhea Virus (PEDV)

Compound: O=c1cc(N2CCOCC2)oc2c(-c3ccccc3)cccc12 [LY294002]
- levels of CP204L and B646L (ASFV [1]): significantly suppressed
- phosphorylation of Akt (Western Blot, Fig. 7(B)) (PI3K/Akt pathway): completely inhibited
- uptake of dextran-Alexa647 by PAMs (macropinocytosis of PAMs): no uptake of dextran-Alexa647
- expression of ASFV p72 (Western Blot, Fig. 7(B)) (ASFV [2]): not detected

Compound: COc1ccc2cc1Oc1ccc(cc1)C[C@H]1c3cc(c(OC)cc3CCN1C)Oc1c(OC)c(OC)cc3c1[C@H](C2)N(C)CC3 [TET, Tetrandrine]
- levels of CP204L and B646L (ASFV [1]): significantly suppressed
- IC50 (ASFV [3]): 1150 nM
- inhibitory effect on LSDV (LSDV 117 protein, Western Blot) (LSDV): dose-dependent inhibitory effect
- IC50 (ASFV [4]): 450 nM
- ASFV p72 expression level by Western Blot, single-stage treatment (ASFV [5]): significant reduction in ASFV p72 expression level was observed only during the internalization stage
- cytotoxicity (IPEC-J2 cells): no cytotoxicity
- ASFV-infected (fluorescent) PAMs by IFA (ASFV [6]): hardly any fluorescent PAMs were observed
- phosphorylation of Akt (Western Blot, Fig. 7(B)) (PI3K/Akt pathway): partially inhibited
- phosphorylation of Akt activated by ASFV internalization (PI3K/Akt pathway): inhibited the phosphorylation of Akt
- ASFV infection level (ASFV [7]): less than 0.5%
- IC50 (ASFV [8]): 870 nM
- Dext (dextran-Alexa647) fluorescence signal, treated versus untreated group (macropinocytosis of PAMs): completely disappeared
- uptake of dextran-Alexa647 by PAMs (macropinocytosis of PAMs): no uptake of dextran-Alexa647
- expression level of ASFV p72 (Western Blot) (ASFV [2]): dose-dependent inhibition
- expression of ASFV p72 (Western Blot, Fig. 7(B)) (ASFV [2]): not detected
- inhibition rate of TET on ASFV compared to the LY294002 control group (ASFV [2]): ~0%
- level of ASFV-p72 protein (Western Blot) (ASFV [2]): significantly reduced
- ASFV infection after co-incubation of TET and ASFV (virucidal effect) (ASFV [9]): did not significantly reduce ASFV infection
- cytotoxicity (MDBK cells): no cytotoxicity
- transferrin-Alexa594 internalization, treated versus untreated group [10]: no significant difference
- inhibitory effect on PEDV (PEDV N protein, Western Blot) (PEDV): dose-dependent inhibitory effect
- cytotoxicity (Vero cells): no cytotoxicity
